Test results published in PMC7284870, “Antimicrobial Peptides from Rat-Tailed Maggots of the Drone Fly Eristalis tenax Show Potent Activity against Multidrug-Resistant Gram-Negative Bacteria” (Microorganisms, 2020).
No end group written: not given here.

Experiments:
S. aureus ATCC 33592 = type: cell-based, Staphylococcus aureus; conditions: ATCC 33592, 18 h
Procedure: (§1) The strains that were used in this study (Table 2 and Table S1) were cultivated at 37 °C in cation-adjusted Mueller–Hinton broth (CAMB) in Erlenmeyer flasks, or on the same medium with agar in Petri dishes. Exceptionally, Mycobacterium smegmatis was cultivated at 37 °C in brain heart infusion (BHI) medium that was supplemented with 1% Tween-80 in Erlenmeyer flasks, or on the same medium lacking detergent but with agar in Petri dishes. Strains listed with Robert Koch Institute (RKI) strain numbers are clinical isolates from the RKI strain collection originating from hospitalized patients in Germany. The remaining strains originated from the Sanofi strain collection and they were originally purchased from the American Type Culture Collection or the German Collection of Microorganisms and Cell Cultures. Meropenem/colistin-resistant strains were maintained, as described above, with the appropriate antibiotic added at levels below the minimal inhibitory concentration (MIC).
(§2) The MIC values were determined in 384-well microtiter plates with an assay volume of 20 µL. Immediately before each assay, the cultures of test organisms (bacteria grown for 18 h, Candida albicans and M. smegmatis grown for 48 h) were diluted with the appropriate medium to a density of 1 × 10^6 cells/mL (C. albicans), 1 × 10^5 cells/mL (M. smegmatis) or 5 × 10^5 cells per mL (other species). […] We transferred 2-µL aliquots from this dilution series to new 384-well microtiter plates while using a CyBio-Well 384-channel automated pipettor (Analytic Jena, Jena, Germany) and added 18 µL of the diluted suspension of each test species using a Viafill reagent dispenser (Integra), thus reducing the final peptide concentration 10-fold to the range 1024–0.03125 µg/mL. […] The growth of M. smegmatis was measured using the BacTiter-Glo luminescence test system (Promega, Madison, WI, USA). The growth of the other species was determined by visual inspection of the microtiter plate and turbidimetry based on the optical density at 600 nm (OD600). The MIC was defined as the peptide concentration at which no bacterial growth was observed. We supplemented the test medium with either 150 mM NaCl or 1.25 mM CaCl2 to represent monovalent and divalent cations to simulate physiological conditions.

[1] = target: human ERG (hERG) potassium channel (Homo sapiens, UniProt Q12809); assay: cell-based
Procedure: The interaction of the peptides with the human ERG (hERG) potassium channel was analyzed using the automated patch-clamp method. Chinese hamster ovary (CHO) hERG Duo cells constitutively expressing hERG (B’SYS) were diluted to 8 × 10^6 cells/mL in Ex-Cell CHO medium (Sigma–Aldrich) containing 25 mM HEPES, 100 U/mL penicillin-streptomycin, and 0.004% soybean trypsin inhibitor. The peptides were diluted from a stock concentration of 10 mM in DMSO to final concentrations of 0.12, 0.37, 1.1, 3.3, 10, and 30 μM (0.5–124 µg/mL for […], 0.51–128 µg/mL for EtCec2-a, 0.49–122 µg/mL for EtCec3-a, 0.8–200 µg/mL for EtDip) in extracellular medium (150 mM NaCl, 4 mM KCl, 2 mM CaCl2, 1 mM MgCl2, 10 mM HEPES, 10 mM glucose) containing 0.06% Pluronic F-68 and 0.3% residual DMSO. The response of hERG to each peptide was assessed while using a QPatch HTX station and QPlates (Sophion/Biolin Scientific, Ballerup, Denmark) by recording the tail current following channel repolarization. Half-maximal inhibitory concentrations (IC50) were determined from a series of six concentrations applied to the cells in ascending order. Terfenadine citrate was used as a positive control and extracellular medium as a negative control.

HepG2 cells = assay: Cytotoxicity (ATP quantification and neutral red uptake)
Procedure: The cytotoxicity of the AMPs was determined in 96-well microtiter plates with an assay volume of 200 µL. The peptides were dissolved in PBS and a 1:2 dilution series in DMEM-F12 medium (supplemented with 1% nonessential amino acids, 1% sodium pyruvate, and 5% heat-inactivated fetal calf serum) was prepared in nine steps to produce test concentrations of 400, 200, 100, […], 12.5, 6.25, 3.13, and 1.56 μM (1655–6.46 µg/mL for EtCec1-a, 1713–6.68 µg/mL for EtCec2-a, 1622–6.33 µg/mL for EtCec3-a, 2661–10.38 µg/mL for EtDip). Stocks of the mycoplasma-free HepG2 cell line HB-8065 (ATCC) stored in liquid nitrogen were seeded at a density of 20,000 cells/well into 96-well microplates in 100 μL DMEM-F12 supplemented as above. After incubation overnight at 37 ± 1 °C in a 5% CO2 atmosphere, 100 μL of the test solution was added per well in six replicates. Ketoconazole was used as a positive control and PBS as a negative control. The plates were incubated for 24 h, as above, and the cell viability was assessed using the luminescent CellTiter-Glo ATP monitoring kit (Promega) to determine the quantity of ATP.
HepG2 cells and peptides were prepared as described above, and cell viability was assessed based on the ability of lysosomes to store the dye neutral red (Sigma–Aldrich, ST. Louis, MO, USA). The cells were incubated for 3 h with a neutral red solution, washed twice, and lysed. After complete lysis, the quantity of neutral red was determined by measuring the absorption at 540 nm while using a Tecan Genios Pro plate reader.

[2] = tested on: Klebsiella pneumoniae DSM 30104; type: cell-based; conditions: DSM 30104, 18 h
Procedure: as §1, §2

[3] = tested on: Staphylococcus aureus ATCC 25923; type: cell-based; conditions: ATCC 25923, 18 h
Procedure: as §1, §2

Escherichia coli D31 = type: cell-based; conditions: D31, 18 h
Procedure: as §1, §2

[4] = tested on: Acinetobacter baumannii ATCC 19606; type: cell-based; conditions: ATCC 19606, 18 h
Procedure: as §1, §2

[5] = tested on: Pseudomonas aeruginosa ATCC 27853; type: cell-based; conditions: ATCC 27853, 18 h
Procedure: as §1, §2

K. pneumoniae RKI 93/10 = assay: microbe, parasite or virus in culture; type: cell-based, Klebsiella pneumoniae; conditions: RKI 93/10, 18 h
Procedure: as §1, §2

A. baumannii RKI 19/09 = assay: microbe, parasite or virus in culture; type: cell-based, Acinetobacter baumannii; conditions: RKI 19/09, 18 h
Procedure: as §1, §2

E. coli RKI 131/08 = assay: microbe, parasite or virus in culture; type: cell-based, Escherichia coli; conditions: RKI 131/08, 18 h
Procedure: as §1, §2

Chain of human ERG (hERG) potassium channel (Q12809 whole entry): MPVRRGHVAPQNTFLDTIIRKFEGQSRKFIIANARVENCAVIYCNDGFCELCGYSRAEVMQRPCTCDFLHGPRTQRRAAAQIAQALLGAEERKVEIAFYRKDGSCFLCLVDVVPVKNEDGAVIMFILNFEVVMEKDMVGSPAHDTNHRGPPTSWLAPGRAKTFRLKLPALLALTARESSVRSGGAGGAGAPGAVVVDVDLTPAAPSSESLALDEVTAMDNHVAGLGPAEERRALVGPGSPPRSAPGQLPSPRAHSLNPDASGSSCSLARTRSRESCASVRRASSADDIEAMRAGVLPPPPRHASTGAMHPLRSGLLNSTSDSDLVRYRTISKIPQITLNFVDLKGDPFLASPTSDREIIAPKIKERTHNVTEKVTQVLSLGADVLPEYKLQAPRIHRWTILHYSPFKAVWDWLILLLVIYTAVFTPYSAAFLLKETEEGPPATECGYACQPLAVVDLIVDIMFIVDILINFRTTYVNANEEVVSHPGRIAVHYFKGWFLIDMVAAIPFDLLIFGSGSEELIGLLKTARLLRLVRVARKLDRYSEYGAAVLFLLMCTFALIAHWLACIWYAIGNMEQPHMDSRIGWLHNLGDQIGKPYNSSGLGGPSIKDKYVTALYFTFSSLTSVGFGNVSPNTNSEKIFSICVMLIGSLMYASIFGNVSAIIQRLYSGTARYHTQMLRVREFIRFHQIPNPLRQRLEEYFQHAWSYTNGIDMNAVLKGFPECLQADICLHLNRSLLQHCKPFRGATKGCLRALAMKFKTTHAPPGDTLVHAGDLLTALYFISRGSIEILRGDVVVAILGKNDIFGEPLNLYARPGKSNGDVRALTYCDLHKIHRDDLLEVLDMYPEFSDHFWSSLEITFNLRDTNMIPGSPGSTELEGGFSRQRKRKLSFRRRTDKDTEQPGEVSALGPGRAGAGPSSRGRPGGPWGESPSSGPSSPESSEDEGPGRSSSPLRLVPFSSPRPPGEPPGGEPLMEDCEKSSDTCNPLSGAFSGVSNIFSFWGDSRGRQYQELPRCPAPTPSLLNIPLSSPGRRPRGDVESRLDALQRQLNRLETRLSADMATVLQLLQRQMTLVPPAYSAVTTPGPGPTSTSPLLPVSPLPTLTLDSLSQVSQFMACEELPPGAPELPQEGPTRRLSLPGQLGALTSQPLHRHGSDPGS

GFLKKVGKKLEGASDLTRDATIQTIAVAQAAANVAATAKQ-NH2 [EtCec3-NH2]
MIC (S. aureus ATCC 33592): >1024 µg/mL
IC50 [1]: > 30 µM
NOEC (HepG2 cells): > 1622 µg/mL
MIC [2]: >1024 µg/mL
MIC [3]: >1024 µg/mL
MIC (Escherichia coli D31): 128 µg/mL
MIC [4]: >1024 µg/mL
MIC [5]: >1024 µg/mL
MIC (K. pneumoniae RKI 93/10): >1024 µg/mL
MIC (A. baumannii RKI 19/09): >1024 µg/mL
MIC (E. coli RKI 131/08): >1024 µg/mL
